Data from ChEMBL document CHEMBL1921689, “Synthesis and biological profile of new 1,2,3,4-tetrahydroisoquinolines as selective carbonic anhydrase inhibitors” (Bioorg Med Chem, 2011).

Target: Carbonic anhydrase 9 (Homo sapiens, UniProt Q16790)
Assay: Inhibition of human CA9 catalytic domain preincubated for 15 mins by stopped flow CO2 hydration assay

Compound | Ki [nM]
COc1ccc2c(c1)CCN(S(N)(=O)=O)C2c1ccccc1 (racemic) | 78
COc1ccc2c(c1)CCN(S(N)(=O)=O)C2c1ccc(Br)cc1 (racemic) | 60.7
COc1ccc2c(c1)CCN(S(N)(=O)=O)C2c1ccc(F)cc1 (racemic) | 31
COc1ccc2c(c1)CCN(S(N)(=O)=O)C2c1cccc(N)c1 (racemic) | 18

Stronger by Ki, values ahead:

Ki [nM] | Compound
7 | COc1ccc2c(c1)CCN(S(N)(=O)=O)C2c1ccc(C#N)cc1 (racemic)
7.5 | COc1ccc2c(c1)CCN(S(N)(=O)=O)C2c1ccc(C)cc1 (racemic)
16 | COc1ccc2c(c1)CCN(S(N)(=O)=O)C2c1cccc([N+](=O)[O-])c1 (racemic)
5 | COc1ccc2c(c1)CCN(S(N)(=O)=O)C2c1ccc([N+](=O)[O-])cc1 (racemic)
12 | COc1ccc2c(c1)CCN(S(N)(=O)=O)C2c1ccc(N)cc1 (racemic)
